From US7417162B2, “Oily ingredient for cosmetic preparation and cosmetic preparation” (Kyowa Yuka Co., Ltd., priority 2001, dated 2008)

Experiment: Test for solubility of a UV-A absorber in the oil
Assay type: physicochemical
Settings: for Solubility of a UV-A absorber: UV-A absorber dissolved to saturation in the compound
Method: Then, absorbance (A) of a peak observed near 350 nm was measured. Solubility was figured out from a value calculated by the following equation and a weight of a sample prepared. The measurement temperatures are at room temperature ([…]) and 50° C.

CCC(CC(CC)C(=O)OC)C(=O)OC (stereo not drawn) [Compound 3, dimethyl 2,4-diethylglutarate]
Solubility of a UV-A absorber (50° C.): 40.7 g/100 g
Solubility of the UV-A absorber, in words (in comparison to comparative compound 1): excellent
Solubility of a UV-A absorber (room temperature (25° C.)): 23.1 g/100 g
